Values belong to the compound of their own block, whether it stands above or below them. Where a SMILES comes first, the peptide text is derived from it. [ ]: non-standard residue; d: D form. The star is where a group is joined. ξ: configuration not given here. NOTA = O=C(O)CN1CCN(CC(=O)O)CCN(CC(=O)*)CC1; Oic = O=C(O)[C@@H]1C[C@@H]2CCCC[C@@H]2N1; d2Nal = N[C@H](Cc1ccc2ccccc2c1)C(=O)O; αMeF = C[C@](N)(Cc1ccccc1)C(=O)O; ξαMeF = CC(N)(Cc1ccccc1)C(=O)O; Orn = NCCC[C@H](N)C(=O)O; βAla = NCCC(=O)O
Experiments:
human B1R = molecular target: T1, human B1R (Homo sapiens, UniProt P46663); assay: human bioassay using isolated human umbilical veins, B1R; type: cell-based; details: versus the βAla-linked compound
T1 construct: It particularly expresses both kinin B1R and B2R at physiological densities; from tissue; host or cells: isolated human umbilical vein
T1 sequence (P46663 1-353): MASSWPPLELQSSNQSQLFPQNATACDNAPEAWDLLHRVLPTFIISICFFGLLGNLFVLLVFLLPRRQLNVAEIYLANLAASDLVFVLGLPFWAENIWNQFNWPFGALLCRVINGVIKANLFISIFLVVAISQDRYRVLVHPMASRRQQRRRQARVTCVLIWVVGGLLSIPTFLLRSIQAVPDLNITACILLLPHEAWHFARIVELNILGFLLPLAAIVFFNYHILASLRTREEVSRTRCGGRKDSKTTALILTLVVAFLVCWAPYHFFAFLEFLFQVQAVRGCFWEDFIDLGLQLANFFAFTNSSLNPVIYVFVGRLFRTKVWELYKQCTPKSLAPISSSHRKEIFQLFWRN
Description: The apparent affinity constants (or potency) of kinin agonist and antagonist analogues for human B1R were estimated by in vitro human bioassay using isolated human umbilical veins (Gobeil et al., 1996, supra; Côté et al., 2009, supra). […] It particularly expresses both kinin B1R and B2R at physiological densities. Apparent affinities of peptides were defined in terms of EC50 (pD2) values for agonists and IC50 values for antagonists.

cancer cells = assay: cytotoxicity of B1R radionuclide therapy by clonogenic assays; type: cell-based; details: non-radioactive surrogate up to 10 μM
Procedure: Cytotoxicity of B1R radionuclide therapy was assessed in cancer cells by clonogenic assays. […] Then, media were removed and colonies fixed/stained with 0.5% methylene blue in 50% ethanol, rinsed with tap water and air dried. Colony counting was performed manually or automatically using the Image Pro Plus 5.1.

F98 GBM [1] = assay: small animal PET imaging, Fischer/F98 malignant glioma model; type: in vivo, rat; details: intravenous, F98 GBM-bearing rats
Procedure: The F98 GBM cell line (#CRL-2397) was purchased from American Type Culture Collection (ATCC). Cells were cultured as monolayers in Dulbecco's modified Eagle medium (DMEM) supplemented with 10% fetal bovine serum (FBS) and 1% penicillin-streptomycin mixture at 37° C. in a humidified 5% CO2/95% air incubator. The procedure of F98 glioma cell implantation was similar to that used in our previous studies (Côté et al., 2010, Neuropeptides, 44:177-185). […] All tumor transplantations were successful as determined by histology and/or MRI.
PET scans were performed using a LabPET8 (Gamma Medica Inc.) small animal scanner with an axial field of view of 8 cm. […] PET scans were assessed 1 h and 20 h post-injections. […] Regions of interest were traced for tumor, normal brain, heart, liver, kidney, and muscle, and the activity in each organ was measured and reported to the injected dose for percentages calculation. […] In vivo testing of the novel kinin PET radiotracers was also assessed in a model of tumor metastasis induced by the intracardiac injection of 4T1/luc (bioluminescent) mouse breast cancer cells under ultrasound guidance.

4T1/luc metastases = assay: PET and bioluminescence imaging, 4T1/luc mouse mammary tumor metastasis model; type: in vivo; details: 4T1/luc mouse model
Procedure: PET scans were performed using a LabPET8 (Gamma Medica Inc.) small animal scanner with an axial field of view of 8 cm. F98 GBM bearing rats were injected with 74 MBq (2 mCi; 100 μL) of novel ^64Cu radiolabeled B1R peptides (agonist or antagonist) with via the caudal vein under isoflurane anesthesia. PET scans were assessed 1 h and 20 h post-injections. […] The images were reconstructed by a three dimensional MLEM algorithm implementing an analytically derived system matrix (Selivanov et al., 2000, Nuclear Science, IEEE Transactions on, 47: 1168-1175). Regions of interest were traced for tumor, normal brain, heart, liver, kidney, and muscle, and the activity in each organ was measured and reported to the injected dose for percentages calculation. […] In vivo testing of the novel kinin PET radiotracers was also assessed in a model of tumor metastasis induced by the intracardiac injection of 4T1/luc (bioluminescent) mouse breast cancer cells under ultrasound guidance.

[2] = rat
Procedure: For in vivo stability studies in normal healthy rats and mice, peptide was reconstituted in PBS and 20-30 MBq (500-800 μCi; 100 μL) were injected through the tail vein to isoflurane anesthetized animals. At different times post-injection, blood and urine were collected, centrifuged and followed by a protein precipitation with acetonitrile. Samples were analyzed by UPLC using a C-18 column and a radio-detector. Analysis and retention times were compared to the original radiolabeled peptide to monitor peptide cleavage.

[3] = system: brain tumor cells and other types of cancer cells (e.g., breast and prostate); assay: cellular and nuclear uptake of Cu (ICP-MS / radiometric assays); type: cell-based
Procedure: Cellular uptake profiles of non-radioactive Cu-acetate and Cu-labeled peptides in B1R expressing rat F98 GBM cells were evaluated by ICP-MS analysis. Brain cancer cells were allowed to grow to confluence on a 10-cm dish. Cells were then incubated with Cu-acetate or Cu-labeled peptides (500 nM) in FBS free-DMEM at 37° C. for 15 min or 1, 4, or 20 h, respectively. For determination of nonspecific internalization, one set of dishes was incubated with the potent B1R antagonist R-954 (1 μM) at 37° C. for 10 min to block B1R prior to incubation with Cu-labeled peptides. At each time point, media was collected, and cells were acid-washed once (50 mM acetic acid/250 mM NaCl pH 2.5), to remove surface-bound fractions, and then washed twice with Phosphate-buffered saline (PBS, pH 7.4). Thereafter, cells were trypsinized, collected by centrifugation and gently washed with Hank's buffered salt solution (HBSS). Cells were solubilized in 1/1 nitric acid/30% H2O2 solution, and the amount of Cu was determined by ICP-MS. […]
Irradiating DNA is an effective way to injure and eventually kill cells. […] Pelleted cell-free nuclei were resuspended in 0.5 ml of hypotonic buffer, counted and finally solubilized in 1/1 nitric acid/30% H2O2 solution. […] Quantification of Cu content in the nuclear fractions was done by ICP-MS.

[4] = system: human solid tumors (e.g., brain and prostate) expressing naturally-occurring native B1R; assay: PET imaging of solid tumors expressing native B1R (LN-CaP tumor-bearing nude mouse, F98); type: in vivo
Procedure: FIGS. 4A-C illustrate in vitro cell uptake and anticancer activity of ^64Cu-NOTA-βAla-Orn^1-Arg^2-Oic^3-Pro^4-Gly^5-(αMe)Phe^6-Ser^7-DβNal^8-Ile^9-OH; ^64Cu-NOTA-B1RA) (SEQ ID NO: 6) in human prostate cancer cells (PC3 and LN-CaP). Cell uptake of ^64Cu-Nota-B1RA (in the presence or not of competitor R954) in PC3 cells measured at 20 h post-treatment by radiometric assays (A). Dose-dependent antiproliferative effects of ^64Cu-acetate and ^64Cu/Nota-B1RA on PC3 cells (B) and LN-CaP cells (C), assessed by clonogenic assays. FIG. 4 D illustrates the molecular imaging of prostate cancer with ^64Cu/Nota-B1RA. PET images of LN-CaP tumor-bearing nude mouse obtained after injection of 64Cu/Nota-B1RA (9 MBq) at 0.5 h post-injection (p.i.). […] FIG. 4F confirms the immunohistochemical (IHC) overexpression of B1R in tumoral tissues of LNCaP-bearing mice (blackiste dark-color).
FIGS. 5A-C illustrate in vitro cellular/nuclear uptake and anticancer activity of ^64Cu-NOTA-βAla-Orn^1-Arg^2-Oic^3-Pro^4-Gly^5-(αMe)Phe^6-Ser^7-DβNal^8-Ile^9-OH (Cu/Nota-B1RA) (SEQ ID NO: 6) in F98 GBM cells. Cell uptake and nuclear localization of non-radioactive, free Cu and Cu/Nota-B1RA in F98 glioma cells measured at 20 h post-treatment by ICP-MS (A). Dose-dependent antiproliferative effects of ^64Cu-acetate, ^64Cu/Nota-B1RA on F98 wildtype (B) or shRNA-B1R knockdown F98 cells (C) using clonogenic assays. […]

F98 GBM [5] = assay: peptide receptor radionuclide therapy (PRRT), survival of F98 GBM-bearing rats; type: in vivo; details: single intravenous treatment 7.5 mCi/rat, day 10 post-inoculation
F98 GBM [6] = assay: ex vivo biodistribution in F98 GBM-bearing rats; parameters: species or system rat
Procedure: Ex vivo biodistribution studies were performed by injecting 74 MBq (2 mCi/rat; 100 μL of ^64Cu-NOTA-βAla-Orn^1-Arg^2-Oic^3-Pro^4-Gly^5-(αMe)Phe^6-Ser^7-DβNal^8-Ile^9-OH (SEQ ID NO: 6) to isoflurane-anesthetized normal (non-implanted) or F98 bearing rats via the caudal vein. After 1 and 20 h post-injection, the animals were euthanized by CO2 inhalation. Organs of interest were further collected, weighed, and measured in a gamma-counter (Cobra II auto-gamma counter, Packard, Minn.). The results were expressed as percentage of the injected dose per gram of tissue (% ID/g). Specificity of brain tumor uptake of B1R radiotracers was determined by pre-administration of 1 mg/kg of R954 peptide (5 min prior the injection of the radiolabelled peptide) and using sham-operated contralaterals. Animals bearing B1R target knockdowns were also employed to further support specificity of brain tumor uptake. Experiments were realized with a minimum of 3 rats per group.

- decrease in affinity to hB1R in absence of linker (human B1R): 10 fold
Compound: CC[C@H](C)[C@H](NC(=O)[C@@H](Cc1ccc2ccccc2c1)NC(=O)[C@H](CO)NC(=O)C(C)(Cc1ccccc1)NC(=O)CNC(=O)[C@@H]1CCCN1C(=O)[C@@H]1C[C@@H]2CCCC[C@@H]2N1C(=O)[C@H](CCCNC(=N)N)NC(=O)[C@H](CCCN)NC(=O)CN1CCN(CC(=O)O)CCN(CC(=O)O)CC1)C(=O)O (stereo partly shown) [Cu-NOTA-Orn^1-Arg^2-Oic^3-Pro^4-Gly^5-(αMe)Phe^6-Ser^7-DβNal^8-Ile^9-OH] ({NOTA}-[Orn]R[Oic]PG[ξαMeF]S[d2Nal]I-OH; N-terminus assumed)

Compound: CC[C@H](C)[C@H](NC(=O)[C@@H](Cc1ccc2ccccc2c1)NC(=O)[C@H](CO)NC(=O)C(C)(Cc1ccccc1)NC(=O)CNC(=O)[C@@H]1CCCN1C(=O)[C@@H]1C[C@@H]2CCCC[C@@H]2N1C(=O)[C@H](CCCNC(=N)N)NC(=O)[C@H](CCCN)NC(=O)CCNC(=O)CN1CCN(CC(=O)O)CCN(CC(=O)O)CC1)C(=O)O (stereo partly shown) [Cu-NOTA-βAla-Orn^1-Arg^2-Oic^3-Pro^4-Gly^5-(αMe)Phe^6-Ser^7-DβNal^8-Ile^9-OH] ({NOTA-βAla}-[Orn]R[Oic]PG[ξαMeF]S[d2Nal]I-OH; N-terminus assumed)
- anticancer activity / therapeutic efficacy (cancer cells): not seen

Compound: CC(=O)[O-].CC(=O)[O-].[64Cu+2] [^64Cu-acetate, reference compound]
- anticancer activity / therapeutic efficacy (cancer cells): not seen

Compound: ^64Cu-NOTA-βAla-DLys^1-Arg^2-Pro^3-Pro^4-Gly^5-Phe^6-Ser^7-Pro^8-DPhe^9-OH (AKRPPGFSPF; 64Cu-NOTA-betaAla N-terminal; D-Lys1, D-Phe9; SITE (1)...(1) beta-alanine; SITE (2)...(2) D-lysine; SITE (10)...(10) D-phenylalanine)
- detection of brain tumors by μPET (F98 GBM [1]): properly detected relatively small brain tumors

Compound: ^64Cu-NOTA-βAla-Orn^1-Arg^2-Oic^3-Pro^4-Gly^5-(αMe)Phe^6-Ser^7-DβNal^8-Ile^9-OH ({NOTA}-[βAla][Orn]R[Oic]PG[αMeF]S[d2Nal]I-OH; also: 64Cu complexed by NOTA)
- PET signal localization versus bioluminescent signals (4T1/luc metastases): colocalized with bioluminescent signals from (bone) metastases
- in vivo stability [2]: no degradation sign
- elimination (pharmacokinetics) ([2]; in vivo): largely eliminated by the kidneys in urine as intact form
- detection of brain tumors by μPET (F98 GBM [1]): properly detected relatively small brain tumors
- cellular localization [3]: localize both in cytoplasmic and nuclear compartment
- non-invasive detection of solid tumors [4]: capacity to identify or detect non-invasively and rapidly human solid tumors
- survival with PRRT (F98 GBM [5]): tendency of prolonging survival
- anticancer activity / therapeutic efficacy (cancer cells): enhanced anticancer activity
- brain tumor uptake, ex vivo biodistribution (F98 GBM [6]): significant amount of brain tumor uptake

From US11213597B2, “Kinin-based theranostic probes for solid cancers and uses thereof” (SOCIETE DE COMMERCIALISATION DES PRODUITS DE LA RECHERCHE …, priority 2015, dated 2022)
